In patent US5262426A, “N,N'-cycloalkyl/alkyl carboxamide 4H-imidazo-[4,5-b]pyridine compounds as PAF antagonists” (G. D. Searle & Co., priority 1993, dated 1993):

What was measured:
[1] = tested on: arachidonic acid-induced platelet aggregation; conditions: cited from earlier work
thromboxane synthetase = conditions: cited from earlier work
bronchoconstriction = conditions: cited from earlier work
[2] = biological target: T1, PAF receptor (human platelet membrane preparation) (Homo sapiens, UniProt P25105); assay: Assay A: Human Platelet Receptor Binding ([3H]PAF); conditions: for IC50: 0.75 nM [3H]PAF, 30 minutes at 24° C
T1 construct: human platelet membrane preparation; tissue Lifesource, Inc. (Glenview, Ill.); host or cells: human packed platelets (washed, freeze-thaw broken, membrane pellet)
Description: Assay A: Human Platelet Receptor Binding
Compounds of the invention were evaluated for their ability to inhibit specific binding of [^3 H]PAF to human platelet membrane preparation. Human packed platelets were obtained from Lifesource, Inc. (Glenview, Ill.) and washed 3 times with 10 mM Trizma pH 7.0, 2 mM EDTA (dipotassium salt), 150 mM KCl and then once with 10 mM Trizma 7.4, 20 mM CaCl2. The platelets were broken by freezing in a dry ice-ethanol bath, followed by thawing in 24° C. water baths. The preparation was centrifuged (40,000 x g, 20 minutes, 4'C) and the pellet resuspended in 10 mM Trizma 7.4, 20 mM CaCl2, 5 mg/ml human albumin. Protein concentration in the platelet membrane preparation was determined by the Lowry method [0. H. Lowry et al, J. Biol. Chem., 193 265-275 (1951)]. Aliquots of the membrane preparation were stored at -70° C. Each preparation was characterized for PAF receptor number and dissociation constant (Kd). In binding assays 5 μl of test compound, solubilzed in DMSO, was added to polypropylene tubes along with 0.75 nM [^3 H]PAF and 200 mcl [0.075 nM] of membranes and 95 μl 10 mM Trizma 7.4, 20 mM CaCL2, 5 mg/ml human albumin. Tubes were incubated for 30 minutes at 24° C. The incubation was terminated by adding 4 ml of ice-cold 10 mM Trizma pH 7.4, 20 mM CaCl2 and 20 mg/ml BSA prior to vacuum filtration using Whatman GF/C filters. Filters were prepared and counted for a scintillation counter. All DPM values were corrected for background and isotope decay. Triplicate determinations for single doses were averaged. The amount of non-specific binding was subtracted from all dose averages, giving an amount of specific binding in all cases. The IC50 values for compounds of the invention determined by the Allfit program using percent displacement data. Allfit is a "basic" computer program for simultaneous curve fitting of a family of sigmoidal dose-response curves using the four parameter logistic equation.

human platelets = assay: Assay B: Human Platelet Aggregation Inhibition (PAF-induced, platelet-rich plasma); format: cell-based; conditions: 37°
Description: Assay B: Human Platelet Aggregation Inhibition
A compound of the invention was evaluated for ability to inhibit PAF-induced aggregation of human platelets in a human-platelet-rich plasma. Venous blood was collected from donors who fasted for 8 hours and were instructed not to use antiinflammatory drugs for 2 weeks prior to blood draw. Blood was collected into syringes containing 0.1 ml of 3.8% [w/v] citrate and centrifuged in polypropylene tubes at 150xg for 20 minutes at room temperature. The platelet rich plasma [PRP] was collected and let sit for 20 minutes at room temperature. Platelet activating factor [PAF] was diluted in 0.9% NaCl with 0.25% bovine serum albumin. Silicon treated cuvettes with stir bars were placed in the 37° heating block of the platelet aggregometer [Bio/Data Corporation, Platelet Aggregation Profiler, Model PAP-4]. PRP and test compound were added to cuvettes and aggregation monitored for 10-15 seconds at 37° with stirring. PAF was added and aggregation monitored for an additional 3 minutes. Peak aggregation was considered the peak of the first aggregation wave usually 45-60 seconds after PAF addition. Inhibition of aggregation was determined by the following: 1- [(% aggregation in the presence of compound).div.(% maximal aggregation)]. A log/logit transformation was used to determine half maximal inhibitory concentration of a test compound [IC50 ].

PAF-induced aggregation = conditions: human platelet-rich plasma; cited from earlier work

T1 sequence (P25105 whole entry): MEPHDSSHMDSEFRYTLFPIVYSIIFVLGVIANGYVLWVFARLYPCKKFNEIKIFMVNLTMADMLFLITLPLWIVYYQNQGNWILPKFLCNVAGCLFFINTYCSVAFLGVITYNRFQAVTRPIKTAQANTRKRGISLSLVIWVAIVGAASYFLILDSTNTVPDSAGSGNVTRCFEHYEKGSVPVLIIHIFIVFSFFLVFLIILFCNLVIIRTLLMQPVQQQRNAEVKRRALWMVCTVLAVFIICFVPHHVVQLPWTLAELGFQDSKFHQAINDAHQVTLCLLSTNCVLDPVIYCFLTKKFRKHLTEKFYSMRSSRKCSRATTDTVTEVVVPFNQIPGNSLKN

Row | IC50 [2] | SMILES | also measured
1 | 139 nM | COc1cc(Cn2cccc3ncnc2-3)ccc1C(=O)N(C1CCCC1)C1CC(C)CC(C)C1 (stereo not shown) [Example 4, N-cyclopentyl-N-(3,5-dimethylcyclohexyl)-4-[(4H-imidazo[4,5-b]pyridin-4-yl)methyl]-2-methoxybenzamide] | IC50 (human platelets): 58 nM
2 | 323 nM | COc1cc(C(=O)N(C(C)C)C2CCCCC2)ccc1Cn1cccc2nc(C)nc1-2 [Example 5, N-cyclohexyl-3-methoxy-N-(1-methylethyl)-4-[(2-methyl-4H-imidazo[4,5-b]pyridin-4 yl]methyl]benzamide] | –
3 | 460 nM | COc1cc(C(=O)N(C(C)C)C2CCCCC2)ccc1Cn1cccc2nc(CO)nc1-2 [Example 6, N-cyclohexyl-4-[[2-(hydroxymethyl)-4H-imidazo[4,5-b]pyridin-4-yl]methyl]-3 methoxy-N-(1-methylethyl)benzamide] | –
4 | 732 nM | COc1cc(C(=O)N(C(C)C)C2CCCCC2)ccc1Cn1cccc2nc(-c3ccccn3)nc1-2 [Example 7, N-cyclohexyl-3-methoxy-N-(1-methylethyl)-4-[[2-(2-pyridinyl)-4H-imidazo[4,5-b]pyridin-4-yl]methyl]benzamide] | –
5 | 854 nM | CC(C)N(C(=O)c1ccc(Cn2cccc3ncnc2-3)cc1)C1CCCCC1 [Example 9, N-cyclohexyl-4-[(4H-imidazo[4,5-b]pyridin-4 yl)methyl]-N-(1-methylethyl)benzamide] | –

More lines, now with the values behind:

Row | SMILES | IC50 [2] | also measured
6 | C(=Cc1ccccc1)Cn1ccnc1 [1-(3-phenyl-2-propenyl)1H-imidazole] | – | inhibiting arachidonic acid-induced platelet aggregation [1]: effective in inhibiting; inhibiting thromboxane synthetase (thromboxane synthetase): effective in inhibiting; inhibiting bronchoconstriction (bronchoconstriction): effective in inhibiting
7 | COc1cc(C(=O)N(C2CCCC2)C2CCCC2)ccc1Cn1cccc2ncnc1-2 [Example 1, N,N-dicyclopentyl-4-[(4H-imidazo[4,5-b]pyridin-4-yl)methyl]-3-methoxybenzamide] | 1050 nM | –
8 | COc1cc(Cn2cccc3ncnc2-3)ccc1C(=O)N(C(C)C)C1CCCCC1 [Example 2, N-cyclohexyl-4-[(4H-imidazo[4,5-b]pyridin-4-yl)methyl]-2-methoxy-N-(1-methylethyl)benzamide] | – | inhibition at 10 µM ([2]; at 10 μM): 40%
9 | COc1cc(C(=O)N(C(C)C)C2CCCCC2)ccc1Cn1cccc2ncnc1-2 [Example 3, N-cyclohexyl-4-[(4H-imidazo[4,5-b]pyridin-4-yl)methyl]-3-methoxy-N-(1-methylethyl)benzamide] | 643 nM | –
10 | CN(C(=O)c1ccc(Cn2cnc3cnccc32)cc1)C1CCCCC1 [N-cyclohexyl-N-methyl-4-(1H-imidazo[4,5-c]pyridin-1-yl-methyl)benzamide] | – | inhibition of PAF-induced aggregation (PAF-induced aggregation): inhibitor of PAF-induced aggregation
